Test results published in patent US9221746B2, “Homo- and hetero-polyamino-acid derivatives of fullerene C60, method for producing same, and pharmaceutical compositions based on said derivatives” (priority 2011, dated 2015).

Key:
[1] = test system: Herpes simplex virus, type 1, Lg strain; experiment: Anti-herpetic activity in the Vero cell culture; type: cell-based; conditions: for Optical density: MTT assay
[2] = test system: A/Aichi/2/69 (H3N2) influenza virus; experiment: Induced influenza pneumonia in mice
[3] = LD70, intramuscularly 50 mg/kg/day
[4] = LD70, intramuscularly 100 mg/kg/day
[5] = LD70, intramuscularly 200 mg/kg/day
[6] = LD70, intraperitoneally 50 mg/kg/day
[7] = LD70, intraperitoneally 100 mg/kg/day
[8] = LD90, intramuscularly 50 mg/kg/day
[9] = LD90, intramuscularly 100 mg/kg/day
[10] = LD90, intramuscularly 200 mg/kg/day
[11] = LD90, intraperitoneally 50 mg/kg/day
[12] = LD90, intraperitoneally 100 mg/kg/day

For “Fullerene Poly(Aminocaproic Acid) of Formula C60(H3){NH(CH2)5COO—}3{NH3^+(CH2)5COOH}3 [Agent No. 1]”, the “protection of cells from the cytodestructive effect of the virus” value ([1]; 100 TCD50, agent 60 minutes prior to infecting, all concentrations from 5.0 mcg/mL and higher) was “completely protects”, the “protection of cell culture from the cytodestructive effect of the virus” value ([1]; 1000 TCD50/0.2 mL, infected 60 minutes post inserting the agent) was “complete protection” and the Optical density ([1]; 100 TCD50, 5.0 mcg/mL) was 1.110 ± 0.08. For the same substance, the Optical density ([1]; 100 TCD50, 10.0 mcg/mL) was 1.015 ± 0.07, the Optical density ([1]; 100 TCD50, 50.0 mcg/mL) was 1.153 ± 0.06 and the Optical density ([1]; 100 TCD50, 100.0 mcg/mL) was 1.79 ± 0.05. The Optical density ([1]; 1000 TCD50, 5.0 mcg/mL) was 1.027 ± 0.04, the Optical density ([1]; 1000 TCD50, 10.0 mcg/mL) was 1.021 ± 0.04 and the Optical density ([1]; 1000 TCD50, 50.0 mcg/mL) was 1.033 ± 0.03. The Optical density ([1]; 1000 TCD50, 100.0 mcg/mL) was 1.083 ± 0.01, the “Average lifetime (days)” value [2, 3] was 13.3 (1-7 d., 1-8 d.) days and the “Percent death protection (%)” value [2, 3] was 50%. For the same substance, the “Percent body weight change in days post infection” value (“Percent body weight change” below) ([2]; LD70, intramuscularly 50 mg/kg/day, day 1) was “+20%”, the “Percent body weight change” value ([2]; LD70, intramuscularly 50 mg/kg/day, day 2) was “+22%” and the “Percent body weight change” value ([2]; LD70, intramuscularly 50 mg/kg/day, day 3) was “+22%”. For the same substance, the “Percent body weight change” value ([2]; LD70, intramuscularly 50 mg/kg/day, day 4) was “+17%”, the “Percent body weight change” value ([2]; LD70, intramuscularly 50 mg/kg/day, day 5) was “+11%” and the “Percent body weight change” value ([2]; LD70, intramuscularly 50 mg/kg/day, day 7) was “+9%”. The “Percent body weight change” value ([2]; LD70, intramuscularly 50 mg/kg/day, day 9) was “+11%”, the “Percent body weight change” value ([2]; LD70, intramuscularly 50 mg/kg/day, day 11) was “+19%” and the “Percent body weight change” value ([2]; LD70, intramuscularly 50 mg/kg/day, day 13) was “+26%”. For the same substance, the “Percent death protection (%)” value [2, 4] was 70%, the “average lifetime” value [2, 4] was greater than 16 days and the “Percent body weight change” value ([2]; LD70, intramuscularly 100 mg/kg/day, day 1) was “+21%”. For the same substance, the “Percent body weight change” value ([2]; LD70, intramuscularly 100 mg/kg/day, day 2) was “+25%”, the “Percent body weight change” value ([2]; LD70, intramuscularly 100 mg/kg/day, day 3) was “+27%” and the “Percent body weight change” value ([2]; LD70, intramuscularly 100 mg/kg/day, day 4) was “+23%”. For the same substance, the “Percent body weight change” value ([2]; LD70, intramuscularly 100 mg/kg/day, day 5) was “+20%”, the “Percent body weight change” value ([2]; LD70, intramuscularly 100 mg/kg/day, day 7) was “+21.5%” and the “Percent body weight change” value ([2]; LD70, intramuscularly 100 mg/kg/day, day 9) was “+32%”. For the same substance, the “Percent body weight change” value ([2]; LD70, intramuscularly 100 mg/kg/day, day 11) was “+35.5%”, the “Percent body weight change” value ([2]; LD70, intramuscularly 100 mg/kg/day, day 13) was “+38%” and the “Average lifetime (days)” value [2, 5] was 13.8 (1-7 d., 1-13 d.) days. The “Percent death protection (%)” value [2, 5] was 50%, the “Percent body weight change” value ([2]; LD70, intramuscularly 200 mg/kg/day, day 1) was “+25%” and the “Percent body weight change” value ([2]; LD70, intramuscularly 200 mg/kg/day, day 2) was “+27%”. For the same substance, the “Percent body weight change” value ([2]; LD70, intramuscularly 200 mg/kg/day, day 3) was “+28%”, the “Percent body weight change” value ([2]; LD70, intramuscularly 200 mg/kg/day, day 4) was “+24%” and the “Percent body weight change” value ([2]; LD70, intramuscularly 200 mg/kg/day, day 5) was “+20%”. The “Percent body weight change” value ([2]; LD70, intramuscularly 200 mg/kg/day, day 7) was “+23%”, the “Percent body weight change” value ([2]; LD70, intramuscularly 200 mg/kg/day, day 9) was “+22%” and the “Percent body weight change” value ([2]; LD70, intramuscularly 200 mg/kg/day, day 11) was “+25%”. The “Percent body weight change” value ([2]; LD70, intramuscularly 200 mg/kg/day, day 13) was “+36.5%”, the “Average lifetime (days)” value [2, 6] was 13.4 (2-8 d.) days and the “Percent death protection (%)” value [2, 6] was 50%. For the same substance, the “Percent body weight change” value ([2]; LD70, intraperitoneally 50 mg/kg/day, day 1) was “+21%”, the “Percent body weight change” value ([2]; LD70, intraperitoneally 50 mg/kg/day, day 2) was “+27%” and the “Percent body weight change” value ([2]; LD70, intraperitoneally 50 mg/kg/day, day 3) was “+29%”. For the same substance, the “Percent body weight change” value ([2]; LD70, intraperitoneally 50 mg/kg/day, day 4) was “+21%”, the “Percent body weight change” value ([2]; LD70, intraperitoneally 50 mg/kg/day, day 5) was “+16%” and the “Percent body weight change” value ([2]; LD70, intraperitoneally 50 mg/kg/day, day 7) was “+15%”. The “Percent body weight change” value ([2]; LD70, intraperitoneally 50 mg/kg/day, day 9) was “+31%”, the “Percent body weight change” value ([2]; LD70, intraperitoneally 50 mg/kg/day, day 11) was “+36%” and the “Percent body weight change” value ([2]; LD70, intraperitoneally 50 mg/kg/day, day 13) was “+40%”. For the same substance, the “Average lifetime (days)” value [2, 7] was 13.7 (1-3 d.) days, the “Percent death protection (%)” value [2, 7] was 60% and the “Percent body weight change” value ([2]; LD70, intraperitoneally 100 mg/kg/day, day 1) was “+19%”. For the same substance, the “Percent body weight change” value ([2]; LD70, intraperitoneally 100 mg/kg/day, day 2) was “+23%”, the “Percent body weight change” value ([2]; LD70, intraperitoneally 100 mg/kg/day, day 3) was “+22%” and the “Percent body weight change” value ([2]; LD70, intraperitoneally 100 mg/kg/day, day 4) was “+18%”. For the same substance, the “Percent body weight change” value ([2]; LD70, intraperitoneally 100 mg/kg/day, day 5) was “+15%”, the “Percent body weight change” value ([2]; LD70, intraperitoneally 100 mg/kg/day, day 7) was “+18%” and the “Percent body weight change” value ([2]; LD70, intraperitoneally 100 mg/kg/day, day 9) was “+25%”. For the same substance, the “Percent body weight change” value ([2]; LD70, intraperitoneally 100 mg/kg/day, day 11) was “+33%”, the “Percent body weight change” value ([2]; LD70, intraperitoneally 100 mg/kg/day, day 13) was “+41%” and the “Percent death protection (%)” value ([2]; LD70, intraperitoneally 200 mg/kg/day) was 0%. For the same substance, the “Percent body weight change” value ([2]; LD70, intraperitoneally 200 mg/kg/day, day 1) was “+7%”, the “Percent body weight change” value ([2]; LD70, intraperitoneally 200 mg/kg/day, day 2) was “+6%” and the “Percent body weight change” value ([2]; LD70, intraperitoneally 200 mg/kg/day, day 3) was “+5%”. The “Percent body weight change” value ([2]; LD70, intraperitoneally 200 mg/kg/day, day 4) was −4%, the “Percent body weight change” value ([2]; LD70, intraperitoneally 200 mg/kg/day, day 5) was −3% and the “Percent body weight change” value ([2]; LD70, intraperitoneally 200 mg/kg/day, day 7) was −7%. The “Percent body weight change” value ([2]; LD70, intraperitoneally 200 mg/kg/day, day 9) was “+4%”, the “Percent body weight change” value ([2]; LD70, intraperitoneally 200 mg/kg/day, day 11) was “+6%” and the “Percent body weight change” value ([2]; LD70, intraperitoneally 200 mg/kg/day, day 13) was “+15%”. For the same substance, the “Average lifetime (days)” value ([2]; LD70, orally 100 mg/kg/day) was 13.1 (1-8 d., 1-10 d., 1-11 d.) days, the “Percent death protection (%)” value ([2]; LD70, orally 100 mg/kg/day) was 40% and the “Percent body weight change” value ([2]; LD70, orally 100 mg/kg/day, day 1) was “+19%”. For the same substance, the “Percent body weight change” value ([2]; LD70, orally 100 mg/kg/day, day 2) was “+23%”, the “Percent body weight change” value ([2]; LD70, orally 100 mg/kg/day, day 3) was “+25%” and the “Percent body weight change” value ([2]; LD70, orally 100 mg/kg/day, day 4) was “+22%”. The “Percent body weight change” value ([2]; LD70, orally 100 mg/kg/day, day 5) was “+16%”, the “Percent body weight change” value ([2]; LD70, orally 100 mg/kg/day, day 7) was “+17%” and the “Percent body weight change” value ([2]; LD70, orally 100 mg/kg/day, day 9) was “+24%”. The “Percent body weight change” value ([2]; LD70, orally 100 mg/kg/day, day 11) was “+43%”, the “Percent body weight change” value ([2]; LD70, orally 100 mg/kg/day, day 13) was “+51%” and the “Percent death protection (%)” value ([2]; LD70, orally 200 mg/kg/day) was 70%. The “average lifetime” value ([2]; LD70, orally 200 mg/kg/day) was greater than 16 days, the “Percent body weight change” value ([2]; LD70, orally 200 mg/kg/day, day 1) was “+26%” and the “Percent body weight change” value ([2]; LD70, orally 200 mg/kg/day, day 2) was “+31%”. For the same substance, the “Percent body weight change” value ([2]; LD70, orally 200 mg/kg/day, day 3) was “+36%”, the “Percent body weight change” value ([2]; LD70, orally 200 mg/kg/day, day 4) was “+36%” and the “Percent body weight change” value ([2]; LD70, orally 200 mg/kg/day, day 5) was “+36%”. The “Percent body weight change” value ([2]; LD70, orally 200 mg/kg/day, day 7) was “+38%”, the “Percent body weight change” value ([2]; LD70, orally 200 mg/kg/day, day 9) was “+47%” and the “Percent body weight change” value ([2]; LD70, orally 200 mg/kg/day, day 11) was “+51%”. For the same substance, the “Percent body weight change” value ([2]; LD70, orally 200 mg/kg/day, day 13) was “+57%”, the “Average lifetime (days)” value ([2]; LD70, orally 300 mg/kg/day) was 12.8 (1-8 d., 2-9 d.) days and the “Percent death protection (%)” value ([2]; LD70, orally 300 mg/kg/day) was 40%. For the same substance, the “Percent body weight change” value ([2]; LD70, orally 300 mg/kg/day, day 1) was “+24%”, the “Percent body weight change” value ([2]; LD70, orally 300 mg/kg/day, day 2) was “+27%” and the “Percent body weight change” value ([2]; LD70, orally 300 mg/kg/day, day 3) was “+28%”. The “Percent body weight change” value ([2]; LD70, orally 300 mg/kg/day, day 4) was “+24%”, the “Percent body weight change” value ([2]; LD70, orally 300 mg/kg/day, day 5) was “+19%” and the “Percent body weight change” value ([2]; LD70, orally 300 mg/kg/day, day 7) was “+23%”. For the same substance, the “Percent body weight change” value ([2]; LD70, orally 300 mg/kg/day, day 9) was “+35%”, the “Percent body weight change” value ([2]; LD70, orally 300 mg/kg/day, day 11) was “+36%” and the “Percent body weight change” value ([2]; LD70, orally 300 mg/kg/day, day 13) was “+38%”. For the same substance, the “Average lifetime (days)” value [2, 8] was 11.4 (2-7 d., 1-8 d., 2-11 d) days, the “Percent death protection (%)” value [2, 8] was 40% and the “Average lifetime (days)” value [2, 9] was 13.0 (1-8 d., 1-9 d., 1-11 d.) days. For the same substance, the “Percent death protection (%)” value [2, 9] was 60%, the “Average lifetime (days)” value [2, 10] was 13.1 (1-7 d., 2-11 d) days and the “Percent death protection (%)” value [2, 10] was 60%. The “Average lifetime (days)” value [2, 11] was 11.5 (2-7 d. D-9 d., 2-11 d.) days, the “Percent death protection (%)” value [2, 11] was 40% and the “Average lifetime (days)” value [2, 12] was 10 D3-7 d., 2-8 d., 1-9 d.) days. The “Percent death protection (%)” value [2, 12] was 30%, the “Average lifetime (days)” value ([2]; LD90, orally 100 mg/kg/day) was 10.8 (2-7 d., 1-9 d., 2-10 d., 1-11 d) days and the “Percent death protection (%)” value ([2]; LD90, orally 100 mg/kg/day) was 30%. For the same substance, the “Average lifetime (days)” value ([2]; LD90, orally 200 mg/kg/day) was 13.4 (1-10 d., 2-11 d) days, the “Percent death protection (%)” value ([2]; LD90, orally 200 mg/kg/day) was 60% and the increase of lifetime ([2]; intramuscular, doses of 100 and 200 mg/kg/day) was “twofold”. For the same substance, the “toxicity for infected mice” value ([2]; intraperitoneal, 200 mg/kg/day) was “toxic” and the “efficiency of intraperitoneal treatment” value ([2]; intraperitoneal, only in doses of 50 and 100 mg/kg/day) was “efficient”.
